Data: patent US20160311817A1, “HETEROARYL SULTAM DERIVATIVES AS RORc MODULATORS” (Genentech, Inc., priority 2014, published 2016)

Molecular target: T1, RORc ligand binding domain (Homo sapiens, UniProt P51449)
T1 construct: host or cells: E. coli
T1 sequence (P51449 269-508 limits assumed): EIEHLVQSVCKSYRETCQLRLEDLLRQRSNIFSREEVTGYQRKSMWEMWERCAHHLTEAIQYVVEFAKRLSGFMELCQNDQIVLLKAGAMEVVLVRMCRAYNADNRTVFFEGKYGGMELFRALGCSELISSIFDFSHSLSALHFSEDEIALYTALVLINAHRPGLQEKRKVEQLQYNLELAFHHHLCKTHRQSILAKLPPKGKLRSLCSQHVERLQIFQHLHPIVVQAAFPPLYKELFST
Experiment: In Vitro RORc Ligand Binding Assay
Details: radioligand 25-[3H]hydroxycholesterol 6 nM; 0.6 ug/mL RORc receptor; 3 h at 25° C.
Experimental: In Vitro RORc Ligand Binding Assay
This assay was used to determine a compound's potency in inhibiting activity of RORc by determining, Kiapp, IC50, or percent inhibition values.
On day of the assay, 100 uL of 0.05% CHAPS (in deionized H2O) was added to all wells of the GFB Unifilter plate and allowed soak for 1 h. A wash buffer of 50 mM HEPES (pH 7.4), 150 mM NaCl, and 5 mM MgCl2 was prepared to wash the filter plate. To prepare an assay buffer, BSA was added to the wash buffer to reach 0.01% and DTT was added to reach 1 mM.
For IC50 mode, 10 mM compound stocks were serially diluted in DMSO with DMSO to give 20× required final concentration in DMSO (15 uL compound+30 uL DMSO). The 20× compound stocks were diluted in DMSO with Assay Buffer 4-fold to reach 5× the final test concentration in 25% DMSO (10 uL compound+30 uL Assay Buffer). Solutions were mixed by aspiration several times with a pipette set on 50 uL volume. For the assay, 10 uL of 5× compound stock solutions in 25% DMSO were added to the assay plate in duplicate.
For two point screening, 10 mM stock compound solutions were diluted in DMSO to obtain 200 uM (20× the high test concentration) and then diluted 10-fold further to reach 20 uM (20× the low test concentration). The 20× stocks were diluted 4-fold with Assay Buffer (10 uL compound+30 uL Assay Buffer) to reach 5× the test concentrations (50 uM and 5 uM) and 10 uL were added to two assay plates for the duplicate wells. With each concentration tested on 2 plates, each set of 80 compounds used 4 assay plates (1 uM and 10 uM, with n=2).
25-hydroxycholesterol (1 uM) was used to determine the level of NSB signal is prepared in DMSO as for compounds above, then diluted in Assay Buffer to give a final concentration of 5 uM. For 25-hydroxycholesterol in 25% DMSO/75% Assay Buffer; 10 uL per well was used for NSB samples. Wells for Total Binding and No Receptor sample determination contained 10 uL of 25% DMSO/75% Assay Buffer per well.
25-[^3H]hydroxycholesterol was dilute in Assay Buffer to obtain 15 nM and vortex to mix. Add 20 uL to all wells to reach 6 nM final in the assay.
Stock receptor solution was diluted in assay buffer to obtain 1.5 ug/mL in Assay Buffer. 20 uL was added to all wells. For No R samples, 20 uL Assay Buffer was substituted for receptor solution.
Assay plates were 96-well polypropylene V-bottom plates. 10 uL of 5× compound in 25% DMSO/75% Assay Buffer was added to Test wells. 10 uL of 25% DMSO/75% Assay Buffer was added to Total Binding or No Receptor wells. 10 uL of 5 uM 25-hydroxycholesterol in 25% DMSO/75% Assay Buffer was added to NSB wells. 20 uL of 15 nM 25-[^3H]hydroxycholesterol prepared in Assay Buffer was added to all wells. 20 uL of 1.5 ug/mL RORc receptor was added to wells (or […] Assay Buffer to No R wells). Following addition to the wells, the plates were incubated 3 h at 25° C.
Using a Packard Filtermate Harvester, the filter plate were washed 4 times following transfer of the incubated samples. Plates were dry-filtered completely (2 h at 50° C. or overnight at room temperature). 50 uL Microscint 0 was added to all wells and read on Topcount protocol Inverted.
Final concentrations were as follows: 50 mM HEPES buffer (pH 7.4); 150 mM NaCl; 1 mM DTT; 5 mM MgCl2, 0.01% BSA; 5% DMSO; 0.6 ug/mL RORc receptor; 6 nM 25-[^3H]hydroxycholesterol. For NSB wells, 1 uM 25-hydroxycholesterol was also present.

Compound | IC50 [µM]
CC1CC[C@H](C)N(Cc2cc(F)c(N3C[C@@H]4C(n5cnnc5)[C@@H]4C3)cc2F)S1(=O)=O (single isomer, unassigned) [Compound 6] | 0.583
CC(=O)N1CCN(c2ccc(CN3[C@@H](C)CCC(c4cccnc4)S3(=O)=O)c(F)c2)CC1 (single isomer, unassigned) [Compound 15, 1-{4-[3-Fluoro-4-(3-methyl-1,1-dioxo-6-pyridin-3-yl-[1,2]thiazinan-2-ylmethyl)-phenyl]-piperazin-1-yl}-ethanone] | 4.2
CC(=O)N1CCN(c2ccc(CN3[C@@H](C)CCC(c4ncccn4)S3(=O)=O)c(F)c2)CC1 (single isomer, unassigned) [Compound 9, 1-{4-[3-Fluoro-4-(3-methyl-1,1-dioxo-6-pyrimidin-2-yl-[1,2]thiazinan-2-ylmethyl)-phenyl]-piperazin-1-yl}-ethanone] | 0.792
CC(=O)N1CCN(c2ccc(CN3[C@@H](C)CCC(c4ncccn4)S3(=O)=O)c(F)c2)CC1 (single isomer, unassigned) [Compound 10, 1-{4-[3-Fluoro-4-(3-methyl-1,1-dioxo-6-pyrimidin-2-yl-[1,2]thiazinan-2-ylmethyl)-phenyl]-piperazin-1-yl}-ethanone] | 1.1
C[C@H]1CCCS(=O)(=O)N1Cc1cc(F)c(N2C[C@@H]3C(n4cnnc4)[C@@H]3C2)cc1F (stereo partly drawn) [Compound 22, (1S,5R,6S)-3-[2,5-Difluoro-4-((S)-3-methyl-1,1-dioxo-[1,2]thiazinan-2-ylmethyl)-phenyl]-6-[1,2,4]triazol-4-yl-3-aza-bicyclo [3.1.0]hexane] | 0.601
CC(=O)N1CCN(c2ccc(CN3[C@@H](C)CCC(c4ccsc4)S3(=O)=O)c(F)c2)CC1 (single isomer, unassigned) [Compound 12, 1-{4-[3-Fluoro-4-(3-methyl-1,1-dioxo-6-thiophen-3-yl-[1,2]thiazinan-2-ylmethyl)-phenyl]-piperazin-1-yl}-ethanone] | 0.036
CC1CC[C@H](C)N(Cc2cc(F)c(N3C[C@@H]4C(n5cnnc5)[C@@H]4C3)cc2F)S1(=O)=O (single isomer, unassigned) [Compound 5] | 0.074
CC(=O)N1CCN(c2ccc(CN3[C@@H](C)CCC(c4ccncc4)S3(=O)=O)c(F)c2)CC1 (single isomer, unassigned) [Compound 8, 1-{4-[3-Fluoro-4-(3-methyl-1,1-dioxo-6-pyridin-4-yl-[1,2]thiazinan-2-ylmethyl)-phenyl]-piperazin-1-yl}-ethanone] | 1
CC(=O)N1CCN(c2ccc(CN3[C@@H](C)CCC(c4cccnc4)S3(=O)=O)c(F)c2)CC1 (single isomer, unassigned) [Compound 14, 1-{4-[3-Fluoro-4-(3-methyl-1,1-dioxo-6-pyridin-3-yl-[1,2]thiazinan-2-ylmethyl)-phenyl]-piperazin-1-yl}-ethanone] | 0.87

Second part, the compound after the results:

IC50 [µM] | Compound
0.043 | CC1CCC(C2CCCCC2)S(=O)(=O)N1Cc1cc(F)c(N2CC3C(C2)C3n2cnnc2)cc1F (single isomer, unassigned) [Compound 1, 3-[4-(6-Cyclohexyl-3-methyl-1,1-dioxo-[1,2]thiazinan-2-ylmethyl)-2,5-difluoro-phenyl]-6-[1,2,4]triazol-4-yl-3-aza-bicyclo [3.1.0]hexane]
2.2 | CC(=O)N1CCN(c2ccc(CN3[C@@H](C)CCC(c4ccncc4)S3(=O)=O)c(F)c2)CC1 (single isomer, unassigned) [Compound 11, 1-{4-[3-Fluoro-4-(3-methyl-1,1-dioxo-6-pyridin-4-yl-[1,2]thiazinan-2-ylmethyl)-phenyl]-piperazin-1-yl}-ethanone]
0.018 | CC(=O)N1CCN(c2ccc(CN3[C@@H](C)CCC(c4cccs4)S3(=O)=O)c(F)c2)CC1 (single isomer, unassigned) [Compound 7, 1-{4-[3-Fluoro-4-(3-methyl-1,1-dioxo-6-thiophen-2-yl-[1,2]thiazinan-2-ylmethyl)-phenyl]-piperazin-1-yl}-ethanone]
0.292 | CC(=O)N1CCN(c2ccc(CN3[C@@H](C)CCC(c4ccccn4)S3(=O)=O)c(F)c2)CC1 (single isomer, unassigned) [Compound 16, 1-{4-[3-Fluoro-4-(3-methyl-1,1-dioxo-6-pyridin-2-yl-[1,2]thiazinan-2-ylmethyl)-phenyl]-piperazin-1-yl}-ethanone]
0.123 | CC(=O)N1CCN(c2ccc(CN3[C@@H](C)CCC(c4ccsc4)S3(=O)=O)c(F)c2)CC1 (single isomer, unassigned) [Compound 13, 1-{4-[3-Fluoro-4-(3-methyl-1,1-dioxo-6-thiophen-3-yl-[1,2]thiazinan-2-ylmethyl)-phenyl]-piperazin-1-yl}-ethanone]
0.07 | CC1CCC(C2CCCCC2)S(=O)(=O)N1Cc1cc(F)c(N2CC3C(C2)C3n2cnnc2)cc1F (single isomer, unassigned) [Compound 2, 3-[4-(6-Cyclohexyl-3-methyl-1,1-dioxo-[1,2]thiazinan-2-ylmethyl)-2,5-difluoro-phenyl]-6-[1,2,4]triazol-4-yl-3-aza-bicyclo [3.1.0]hexane]
0.825 | CC(=O)N1CCN(c2ccc(CN3[C@@H](C)CCC(c4ccccn4)S3(=O)=O)c(F)c2)CC1 (single isomer, unassigned) [Compound 17]
